Data set [1] is described as follows: Estimating the maximum dissociated fraction of G and T in vivo (Eq. 1, Eq. 2). More on the design: species or system BALB/c mice. The following applies: for maximum dissociated fraction (fdiss. max), Eq. 1: from plasma AUCs of DcNP and CrEL. An excerpt: To estimate a maximum dissociated fraction (fdiss. max) of GT from DcNPs in vivo, a non-compartmental approach based on the plasma AUCs of equi-molar injections of DcNP and CrEL formulations was first utilized: […]
In Eq. 1, it is assumed that systemic clearance of G or T administered as DcNPs only occurs after drug dissociates from the particles, and dissociated drug has the same clearance pathways as the free drug control (CrEL). This non compartmental approach also assumes that drug clearance occurs solely in the central compartment. For the two drugs of interest, T is mainly metabolized in the liver by CYP3A4 and CYP2C8 but G is metabolized by ubiquitous cytidine deaminase (CDA). To understand the impact of the ubiquitous metabolism of G on its pharmacokinetic profile, the plasma concentration of the primary metabolite of G, dFdU, was used as a biomarker for dissociated drug. […] The equation below then provides an estimate of the fraction of the G dose metabolized to dFdU. If the calculated fraction metabolized (fdiss.G→dFdU) from Eq. 2 equals the fdiss. max from Eq. 1, it can be surmised that once G is released from DcNPs at all locations in the body it exchanges readily with the circulating G and subsequently undergoes metabolism (i.e., metabolism of all dissociated drug occurs in the central compartment). However, if some or all of the drug released from DcNPs in peripheral tissue is immediately metabolized to dFdU without exchanging with G in circulation, the fdiss.G→dFdU estimates from Eq. 2 would be expected to exceed the fdiss. max from Eq. 1 (i.e., dissociated drug is metabolized in both the central and peripheral compartments).
G AUC0→∞,CrEL is the plasma AUC of G given in free drug form. G AUC0→∞,DcNP is the total AUCs of associated and dissociated G given in DcNP form. dFdU AUC0→∞, CrEL is the AUC of dFdU formed after administration of free G. dFdU AUC0→∞,DcNP is the AUC of dFdU after dosing G in DcNP, which reflects the amount of dissociated G released from DcNPs and available for metabolic conversion. fdiss.G→dFdU represents the fraction of DcNP-dose that is released as free drug and available for conversion to dFdU by CDA.
The assumptions underlying Eq. 2 are as follows: [1] Dissociated (free) G, but not associated G, is readily available for metabolism by CDA. Dissociated G is rapidly and extensively metabolized to dFdU by CDA. […] A detailed pharmacokinetic model for the associated and dissociated species will be presented next to simulate the in vivo association of both drugs.

A short description of data set [2]: GT localization in healthy versus 4T1 tumor bearing lung tissue. It is filed as in vivo, BALB/c mice. The conditions noted are these: for concentration at 1 h / concentration at 24 h / Kp at 1 h / Kp at 24 h: female, BALB/c, mouse, intravenous; for concentration at 24 h / Kp at 24 h: 24 hours after DcNP; for Kp at 1 h / Kp at 24 h: lung/plasma, read-out: Lung/Plasma Ratio. On the procedure:
Female BALB/c mice were injected with 2×10^5 4 T1 metastatic breast cancer cells that express luciferase as a marker intravenously by tail vein on day 0. Stable expression of luciferase in these cells allows for bioluminescent monitoring of tumor growth and metastasis. Over a 14-day period, mouse behavior and health conditions were monitored daily and body weight measurements were taken every 2 days. […] The bioluminescence imaging was acquired through a XENOGEN IVIS 200 imaging system (PerkinElmer, Waltham, Mass.). The bioluminescence imaging parameters for live mice were set as follows: field of view, 24; excitation filter, closed; emission filter, open; exposure time, 180 sec; binning factor, 4; f/stop, 2. Bioluminescence intensity from mice were integrated using Live Image software (PerkinElmer, Waltham, Mass.). Mice were then intravenously administered GT in DcNPs at a dose of 50 mg/kg G and 5 mg/kg T or the same dose of drug in control suspension (CrEL) and sacrificed at fixed time points.
To determine whether DcNPs enhance GT distribution into target tissues, namely cancer nodules, the differential localization of GT in DcNP or CrEL form in healthy versus cancer nodule bearing mice was investigated. Since lungs are a common metastatic site for breast cancer disease progression, a model for metastasis that forms cancer nodules in the lungs was used. Cancer nodules were established in female BALB/c mice via intravenous inoculation of syngeneic breast cancer cells (4T1). […] Once nodules were established and confirmed with IVIS imaging, mice were administered with GT in either DcNP or conventionally solubilized form at equivalent doses (50/5 mg/kg, GT) and euthanized at pre-determined time intervals. Nodule-free and nodule-bearing lungs were harvested, and lung tissue drug concentrations were compared in these two groups.

For data set [3] the following is noted: cited from earlier work.
The conditions of data set [4]: at 25° C.; cited from earlier work.
Where [5] appears, read: lung, 1 hour after DcNP, 4T1 tumor bearing mice, read-out: Lung.
Setting [6] is: lung, 1 hour after DcNP, Healthy mice, 50/5 mg/kg GT IV, read-out: Lung.
Where [7] appears, read: lung, 1 hour after control (CrEL), 4T1 tumor bearing mice, 50/5 mg/kg GT IV, read-out: Lung.
Where [8] appears, read: lung, 1 hour after control (CrEL), Healthy mice, 50/5 mg/kg GT IV, geometric mean ± SD, read-out: Lung.
Setting [9] is: lung, 4T1 tumor bearing mice, read-out: Lung.
The mark [10] stands for this setting: lung, Healthy mice, read-out: Lung.
The mark [11] stands for this setting: 1 hour after DcNP, 4T1 tumor bearing mice.
Setting [12] is: 1 hour after DcNP, Healthy mice.
Setting [13] is: 1 hour after control (CrEL), 4T1 tumor bearing mice.
Setting [14] is: 1 hour after control (CrEL), Healthy mice.
The mark [15] stands for this setting: plasma, 1 hour after DcNP, 4T1 tumor bearing mice, read-out: Plasma.
[16] abbreviates: plasma, 1 hour after DcNP, Healthy mice, read-out: Plasma.
[17] abbreviates: plasma, 1 hour after control (CrEL), 4T1 tumor bearing mice, read-out: Plasma.
Where [18] appears, read: plasma, 1 hour after control (CrEL), Healthy mice, read-out: Plasma.

Several values for one entry are separate records, joined by “and”; a condition that tells them apart may be missing. Identical values can stand only once. Like-named read-outs stand apart in the source and are kept apart here.

In the case of `Nc1ccn([C@@H]2O[C@H](CO)[C@@H](O)C2(F)F)c(=O)n1` [Gemcitabine, 4-amino-1-[(2R,4R,5R)-3,3-difluoro-4-hydroxy-5-(hydroxymethyl)oxolan-2-yl]pyrimidin-2-one], in data set [1] (GT DcNP IV), the “fraction of dissociated G accessible for metabolism (fdiss.G→dFdU), Eq. 2” value was 8%. In data set [1] (GT DcNP IV), the “in vivo association to DcNPs per Eq. 1” value is recorded as more than 98%. Further, the “maximum dissociated fraction (fdiss. max), Eq. 1” value in data set [1] (GT DcNP IV) is 1.6%. The “G in DcNP dosage form not accessible for dFdU conversion / remaining associated to DcNPs in vivo” value in data set [1] (after IV GT-DcNP administration, listed as G) is 92% and > 92%. Further, the “lung-to-plasma ratio, cancer nodule bearing mice times greater than healthy” value in data set [2] (24 hours after GT DcNP) turned out to be 5 times. The concentration at 1 h was found to be 12500 ± 4900 ng/g in data set [2] (setting [5]); 7500 ± 1200 ng/g in data set [2] (setting [6]); 6000 ± 800 ng/g in data set [2] (setting [7]); 900 ± 400 ng/g in data set [2] (setting [8]); 72600 ± 60000 ng/mL in data set [2] (setting [15]); 52200 ± 64000 ng/mL in data set [2] (setting [16]). In addition, the results for the concentration at 1 h in data set [2] (setting [17]) and in data set [2] (setting [18]) were 2800 ± 1400 ng/mL and 900 ± 200 ng/mL, respectively. Further, the concentration at 24 h in data set [2] (setting [9]) is 3500 ± 1000 ng/g; in data set [2] (setting [10]), 300 ± 100 ng/g; in data set [2] (plasma, 4T1 tumor bearing mice, read-out: Plasma), 34200 ± 600 ng/mL; in data set [2] (plasma, Healthy mice, read-out: Plasma), 12700 ± 1500 ng/mL. In addition, the Kp at 1 h in data set [2] (setting [11]) is 0.2 ± 0.1; in data set [2] (setting [12]) it was 0.1 ± 0.2; in data set [2] (setting [13]), 2.2 ± 1.4; in data set [2] (setting [14]) it was 0.9 ± 0.3. In addition, the Kp at 24 h in data set [2] (4T1 tumor bearing mice) was found to be 0.1 ± 0.03; in data set [2] (Healthy mice), 0.02 ± 0.01.
For `CC(=O)O[C@H]1C(=O)[C@@]2(C)[C@H]([C@H](OC(=O)c3ccccc3)[C@]3(O)C[C@H](OC(=O)[C@H](O)[C@@H](NC(=O)c4ccccc4)c4ccccc4)C(C)=C1C3(C)C)[C@]1(OC(C)=O)CO[C@@H]1C[C@@H]2O` [Paclitaxel, [(1S,2S,3R,4S,7R,9S,10S,12R,15S)-4,12-diacetyloxy-15-[(2R,3S)-3-benzamido-2-hydroxy-3-phenylpropanoyl]oxy-1,9-dihydroxy-10,14,17,17-tetramethyl-11-oxo-6-oxatetracyclo[11.3.1.0^3,10.0^4,7]heptadec-13-en-2-yl] benzoate], the “in vivo association to DcNPs per Eq. 1” value in data set [1] (GT DcNP IV) was more than 75%. For the same molecule, the “maximum dissociated fraction (fdiss. max), Eq. 1” value in data set [1] (GT DcNP IV) was 26.6%. In addition, the “lung concentration, cancer nodule bearing mice times greater than healthy mice” value in data set [2] (24 hours after GT DcNP) amounted to 7 times. In addition, the concentration at 1 h in data set [2] (setting [5]) was found to be 900 ± 500 ng/g; in data set [2] (setting [6]) it was 600 ± 400 ng/g; in data set [2] (setting [7]), 1700 ± 500 ng/g; in data set [2] (setting [8]), 1000 ± 300 ng/g; in data set [2] (setting [15]) it was 2200 ± 1100 ng/mL; in data set [2] (setting [16]), 1400 ± 900 ng/mL. Further, the concentration at 1 h is 700 ± 100 ng/mL in data set [2] (setting [17]) and 300 ± 50 ng/mL in data set [2] (setting [18]). Besides, the concentration at 24 h in data set [2] (setting [9]) worked out at 400 ± 100 ng/g; in data set [2] (setting [10]), 60 ± 10 ng/g. Further, the Kp at 1 h in data set [2] (setting [11]) amounted to 0.4 ± 0.2; in data set [2] (setting [12]), 0.4 ± 0.01; in data set [2] (setting [13]) it was 2.5 ± 0.8; in data set [2] (setting [14]), 3.3 ± 1.2.
In the case of `CC1(C)CCC(CN2CCN(c3ccc(C(=O)NS(=O)(=O)c4ccc(NCC5CCOCC5)c([N+](=O)[O-])c4)c(Oc4cnc5[nH]ccc5c4)c3)CC2)=C(c2ccc(Cl)cc2)C1` [Venetoclax, 4-[4-[[2-(4-chlorophenyl)-4,4-dimethylcyclohexen-1-yl]methyl]piperazin-1-yl]-N-[3-nitro-4-(oxan-4-ylmethylamino)phenyl]sulfonyl-2-(1H-pyrrolo[2,3-b]pyridin-5-yloxy)benzamide], the log partition coefficient (log P) in data set [3] was 6.92. Further, the Water solubility in data set [4] was 0.933 µg/mL.
`C=CC(=O)N1CCC([C@@H]2CCNc3c(C(N)=O)c(-c4ccc(Oc5ccccc5)cc4)nn32)CC1` [Zanubrutinib, (7S)-2-(4-phenoxyphenyl)-7-(1-prop-2-enoylpiperidin-4-yl)-4,5,6,7-tetrahydropyrazolo[1,5-a]pyrimidine-3-carboxamide]: the “log P” value in data set [3] is on record as 3.5. For the same molecule, the Water solubility in data set [4] was 10.3 µg/mL.

Source of the values: US20230113802A1, “COMPOSITION AND METHOD TO PREPARE LONG-ACTING INJECTABLE SUSPENSION CONTAINING MULTIPLE CANCER DRUGS” (University of Washington, priority 2020, published 2023).
